A short description of data set [1]: Partition coefficient (log Po/w) of n-butanol/water. It is filed as physicochemical. To be noted: n-butanol/water two-phase system. The text has this:
The fluorescent contrast agent to be used in a living body should be particularly water soluble. […] For easy synthesis, the number of the sulfonic acid groups is not more than 10, preferably not more than 8. The improvement in the water solubility can be determined by measuring partition coefficient of each compound, which for example, may be measured in a two-phase system of butanol/water. More specifically, introduction of 3 or more sulfonic acid groups results in a partition coefficient log Po/w of n-butanol/water of not more than −1.00.

The next data set concerns mice. Description: Acute toxicity. It is filed as in vivo. Conditions: intravenous injection from tail vein, conscious mice, monitored for 3 days. As for the experimental part: Reduction of toxicity by the introduction of sulfonic acid group and reduction thereof by conversion into sodium salt were studied.
Each test compound was dissolved in distilled water to give a compound solution. This solution was intravenously injected to the conscious mice from the tail vein. The mice were monitored for 3 days after the administration, and acute toxicity [LD50 (mg/kg body weight)] was estimated.

Take `CC1(C)C(=CC=CC2=[N+](CCCS(=O)(=O)[O-])c3ccccc3C2(C)C)N(CCCS(=O)(=O)[O-])c2ccccc21.[Na+]` [NK-1967]: the “log Po/w (butanol/water)” value in data set [1] came to 0.34. The molecule also showed an LD50 in the data set with mice of 20 mg/kg body weight.
